Entries after “also recorded” stand apart in the source; their conditions may differ.
Assays:
[1] = test system: EAE mouse model; details: in vivo; cited from earlier work
[2] = test system: ApoE knockout mice; details: cited from earlier work
[3] = test system: mouse model for allergic contact dermatitis; details: subcutaneous injection; cited from earlier work
[4] = test system: rats following ligation of spinal nerves; details: cited from earlier work
[5] = target: T1, CB2 receptor (Homo sapiens, UniProt P34972); test: CB2 receptor internalization efficacy relative to CP55,940; type: cell-based
Text: (§1) In certain instances, the CB2 receptor agonist compounds identified using the HTRF® assay, the PathHunter-arrestin assay, and the radioligand binding assay can be tested for CB2 receptor internalization to select those agonists that induce robust internalization of the receptor in order to maintain a sufficient level of signaling for sustained in vivo efficacy. In certain embodiments, such agonists are preferred in the methods described herein.
(§2) Receptor internalization can be measured using a number of methods, including but not limited to measuring a loss of labeled receptor from the cell surface (e.g., using flow cytometry) measuring the appearance of receptors internalized in the cell (e.g., in characteristic punctate intracellular vesicles), and/or measuring the return of receptors recycled to the cell surface. For example, the number, density, and/or staining intensity of granules in the cell can be quantified. Receptor internalization can be measured using any appropriate method known to those of skill in the art. […]

[6] = target: rat CB2 receptor (Rattus norvegicus, UniProt Q9QZN9); test: as above; type: cell-based
Text: as §1, §2

[7] = test system: healthy human subjects; test: phase 1a single ascending dose clinical trial; type: in vivo
Method: A phase 1a randomized, double-blind, placebo-controlled single ascending dose clinical trial was performed in 56 healthy human subjects to assess the safety, tolerability, and pharmacokinetics of APD371 (Compound B). Doses of 10 mg, 20 mg, 30 mg, 60 mg, 120 mg, 250 mg, and 400 mg were administered. Subjects were in the clinic for approximately 9 days (referred to as Day −2 to Day 7). Study medication (APD371 or placebo) was administered on Day 1. Each cohort included eight human subjects, six of whom were administered APD371 and two of whom were administered placebo.
(§3) Vital signs were measured for blood pressure and heart rate in the supine position after resting for five minutes. 12-lead electrocardiograms were used to measure RR, PR, QRS, QT, QTc, QTcB, and QTcF in the recumbent position after resting for 10 minutes. 5-lead electrocardiograms were used for continuous telemetry, with measurements taken during the last five minutes of a resting period of 14 minutes±1 minute in the supine position. Baseline measurements were taken prior to dosing.

[8] = target: T1, CB2 receptor; test: internalization of the CB2 receptor in a cell; type: cell-based
Text: In some embodiments, the selective CB2 receptor agonist increases internalization of the CB2 receptor in a cell to at least 75%, at least 80%, at least 85%, at least 90%, at least 95%, at least 96%, at least 97%, at least 98%, or at least about 99% the level of internalization that would occur if the cell were contacted with CP55,940. In some embodiments, the CB2 receptor agonist that increases internalization of the CB2 receptor to at least 90% of CP55,940 is selected from: Compound B, Compound E, Compound G, and Compound H. CP55,940 has the following chemical structure: […]
as §2

[9] = target: T1, CB2 receptor; test: CB2 receptor agonism; type: cell-based
Text: Other CB2 receptor agonist compounds can be identified e.g., using the Homogeneous Time-Resolved Fluorescence (HTRF®) Assay for direct cAMP measurement (Gabriel et al., ASSAY and Drug Development Technologies, 1:291-303, 2003) (see, e.g., Example 2 of WO2011/025541). Compounds can be screened for agonism of the CB2 receptor (e.g., human CB2 receptor) using the HTRF® assay for direct cAMP measurement (assay kit sold by Cisbio-US, Inc., Bedford, Mass.; Catalog #62AM4PEC) in recombinant CHO-K1 cells stably transfected with the CB2 receptor. […] The specific signal (i.e., fluorescence resonance energy transfer, FRET) is inversely proportional to the concentration of unlabeled cAMP in the standard or sample. An agonist of the CB2 receptor is detected in the HTRF® assay for direct cAMP measurement when a compound decreases cAMP concentration. […]
CB2 receptor agonist compounds can also be identified using the DiscoveRx PathHunter β-arrestin assay which measures the β-arrestin binding to the CB2 receptor upon its activation (see, e.g., Example 3 of WO2011/025541). […] Binding of β-arrestin to the activated GPCR causes the complementation of the two enzyme fragments, forming an active β-galactosidase enzyme which can be measured using the chemiluminescent PathHunter Flash Detection Kit (DiscoveRx, Fremont, Calif.: catalog #93-0001).

[10] = test system: painful peripheral diabetic neuropathy model; test: painful peripheral diabetic neuropathy model; details: in vivo
[11] = test system: healthy human subjects; test: phase 1b multiple ascending dose clinical trial; type: in vivo
Method: A phase 1b randomized, double-blind, placebo-controlled multiple ascending dose clinical trial was performed in 36 healthy human subjects to assess the safety, tolerability, and pharmacokinetics of APD371 (Compound B). Doses of 50 mg three times daily (TID), 100 mg TID, and 200 mg TID were administered for 10 days. Subjects were in the clinic for approximately 17 days (referred to as Day −2 to Day 15). Study medication (APD371 or placebo) was administered TID on Days 1-10, and once on Day 11. Each cohort included 12 human subjects, nine of whom were administered APD371 and three of whom were administered placebo.
as §3

[12] = test system: preclinical animal model; test: preclinical animal model studies, cardiovascular effects; type: in vivo
[13] = test system: osteoarthritis pain model; test: osteoarthritis pain model; type: in vivo
[14] = test system: paclitaxel-induced neuropathic pain model; test: paclitaxel-induced neuropathic pain model; details: in vivo
[15] = test system: human CB2 receptor versus the human CB1 receptor; test: selectivity for the human CB2 receptor versus the human CB1 receptor
Method: In some embodiments, an agonist compound that is used in the methods described herein has selectivity for the CB2 Receptor. In some embodiments, selectivity refers to the relative in vitro potency of a compound for the CB2 receptor and another receptor. For example, in some embodiments, selectivity refers to the relative in vitro potency of a compound for the CB2 receptor versus the CB1 receptor. In some embodiments, in vitro potency is measured using a second messenger assay. In some embodiments, in vitro potency is measured using a cAMP assay. In some embodiments, selectivity is determined by comparing data generated using a β-arrestin assay. In some embodiments, selectivity is determined by comparing data generated from a GTP-yS binding assay. In some embodiments, selectivity is determined by comparing data generated from a reporter gene assay. In some embodiments, selectivity is determined by comparing data generated for a biomarker. In some embodiments, in vitro potency is quantified as EC50. In some embodiments, selectivity refers to the relative binding affinity of an agonist for the CB2 receptor and another receptor. In some embodiments, binding affinity is quantified as Ki.

[16] = test system: guinea pig vagus nerve preparations; details: in vitro; cited from earlier work
[17] = test system: RPE cells; details: cited from earlier work
[18] = test system: human vagus nerve preparations; details: in vitro; cited from earlier work
[19] = test system: models of inflammatory pain in rodents; details: systemic delivery; cited from earlier work
[20] = test system: human skin; details: topical administration; cited from earlier work
[21] = test system: bovine nasal cartilage explants; details: in vitro; cited from earlier work
[22] = 50, 100, 200 mg TID for 10 days

T1 sequence (P34972 whole entry): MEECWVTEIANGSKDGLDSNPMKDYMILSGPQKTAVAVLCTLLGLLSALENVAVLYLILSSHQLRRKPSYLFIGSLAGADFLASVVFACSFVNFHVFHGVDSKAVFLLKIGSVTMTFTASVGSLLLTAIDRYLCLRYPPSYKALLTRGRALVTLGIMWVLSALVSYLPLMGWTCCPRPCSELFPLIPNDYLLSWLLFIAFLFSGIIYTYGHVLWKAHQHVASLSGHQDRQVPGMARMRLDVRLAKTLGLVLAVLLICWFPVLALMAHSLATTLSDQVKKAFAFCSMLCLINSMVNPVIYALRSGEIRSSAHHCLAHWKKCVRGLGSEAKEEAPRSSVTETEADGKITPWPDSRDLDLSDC
Chain of rat CB2 receptor (Q9QZN9 whole entry): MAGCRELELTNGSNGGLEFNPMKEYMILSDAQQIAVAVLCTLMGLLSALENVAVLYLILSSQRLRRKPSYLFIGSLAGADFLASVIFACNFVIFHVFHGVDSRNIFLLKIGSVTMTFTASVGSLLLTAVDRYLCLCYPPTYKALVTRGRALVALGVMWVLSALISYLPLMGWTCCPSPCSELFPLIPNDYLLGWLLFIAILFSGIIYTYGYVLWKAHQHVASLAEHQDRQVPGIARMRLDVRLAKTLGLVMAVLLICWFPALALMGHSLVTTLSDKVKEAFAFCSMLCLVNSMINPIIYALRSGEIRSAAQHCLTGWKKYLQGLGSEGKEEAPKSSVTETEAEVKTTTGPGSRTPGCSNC

Molecule: SR144528
- blockade of the WIN 55212-2 effect on leukocyte rolling and adhesion [1]: blocked by the CB2-selective antagonist SR144528
- blockade of the THC effect on atherosclerosis ([2]; in vitro and in vivo): completely blocks this effect

Molecule: CCCCCc1cc(O)c2c(c1)OC(C)(C)[C@@H]1CCC(C)=C[C@@H]21 [THC]
- severity of clinical disease [1]: significantly inhibits the severity of clinical disease
- cutaneous inflammation and pruritus (itch) [3]: reduces cutaneous inflammation and the pruritus (itch)
- progression of atherosclerosis ([2]; mouse, in vivo): reduces the progression of atherosclerosis

Molecule: COc1ccc2c(c1)c(CCN1CCOCC1)c(C)n2C(=O)c1cccc(Cl)c1Cl [GW405833]
- hypersensitivity to mechanical stimuli ([4]; administered systemically): significantly reverses hypersensitivity to mechanical stimuli

Molecule: CC(C)(C)[C@@H](CO)NC(=O)c1nn(-c2c[n+]([O-])ccn2)c2c1C[C@@H]1C[C@H]21 [APD371, (1aS,5aS)-2-(4-Oxy-pyrazin-2-yl)-1a,2,5,5a-tetrahydro-1H-2,3-diaza-cyclopropa[a]pentalene-4-carboxylic Acid ((S)-1-Hydroxymethyl-2,2-dimethyl-propyl)-amide]
- receptor internalization efficacy relative to CP55,940 [5]: 96%
- receptor internalization efficacy relative to CP55,940 [6]: 105%
- systolic and diastolic blood pressure compared to baseline ([7]; single ascending dose): Variations were also seen
- mean change in heart rate compared to baseline ([7]; single ascending dose, highest doses): increase in heart rate was seen at the highest doses; also recorded: asymptomatic mean increase in heart rate
- exposure ([7]; single doses 10 mg to 400 mg): Dose-responsive exposure was observed
- tolerability ([7]; single doses 10 mg to 400 mg): well tolerated
- internalization of the CB2 receptor into cells [8]: high level of internalization
- agonist efficacy at the CB2 receptor [9]: full CB2 receptor agonist
- efficacy in model of painful peripheral diabetic neuropathy [10]: sustained efficacy
- exposure [11, 22]: Dose-responsive exposure was observed
- most common adverse events [11, 22]: headache and nausea
- serious adverse events [11, 22]: no serious adverse events reported
- severity of adverse events [11, 22]: mild
- tolerability [11, 22]: well tolerated with multiple dosing
- drug levels relative to those needed to stimulate the CB2 receptor ([11]; all doses): well above those needed to stimulate the CB2 receptor
- discontinuations ([11]; high-dose group): one discontinuation in the high-dose group due to an adverse event of mild thirst and somnolence
- change in blood pressure ([11]; multiple ascending dose): asymptomatic reductions
- change in heart rate ([11]; multiple ascending dose): asymptomatic reductions
- cardiovascular effects [12]: Cardiovascular effects were not seen
- efficacy in model of osteoarthritis pain ([13]; in vivo): sustained efficacy
- duration of in vivo efficacy following dosing ([13]; osteoarthritis pain model): maintained in vivo efficacy for four hours following dosing
- plasma concentrations ([13]; osteoarthritis pain model, following dosing): rapidly declining plasma concentrations
- efficacy in model of paclitaxel-induced neuropathic pain [14]: sustained efficacy
- selectivity for the human CB2 receptor versus the human CB1 receptor [15]: > 1,000 fold

Molecule: CCCCCCC(C)(C)c1ccc([C@@H]2C[C@H](O)CC[C@H]2CCCO)c(O)c1 [CP55,940]
- capsaicin-, PGE2-, and hypertonic saline-induced depolarization [16]: reduces capsaicin-, PGE2-, and hypertonic saline-induced depolarization
- protection from oxidative damage [17]: significantly protects RPE cells from oxidative damage
- capsaicin-, PGE2-, and hypertonic saline-induced depolarization [18]: reduces capsaicin-, PGE2-, and hypertonic saline-induced depolarization

Molecule: CN1CCCCC1Cn1cc(C(=O)c2cc([N+](=O)[O-])ccc2I)c2ccccc21 (centres unmarked) [AM1241]
- tactile and thermal hypersensitivity ([4]; local (subcutaneous) or systemic administration): reverses tactile and thermal hypersensitivity
- hyperalgesia [19]: suppresses hyperalgesia

Molecule: CCCCCCC(C)(C)c1cc(O)c2c(c1)OC(C)(C)[C@@H]1CC=C(CO)C[C@@H]21 [HU-210]
- histamine-induced responses [20]: reduces these histamine-induced responses
- IL-1alpha-stimulated proteoglycan and collagen degradation [21]: significantly inhibit

Molecule: COc1ccc(C(=O)c2c(C)n(CCN3CCOCC3)c3cc(I)ccc23)cc1 [AM630]
- effect on the AM1241 reversal of hypersensitivity ([4]; rat, in vivo): inhibited by treatment with the CB2-selective antagonist AM630
